This note sets out measurements from patent EP0976747A2, “Use of 5HT-1F receptor antagonists for treating anxiety disorders” (ELI LILLY AND COMPANY, priority 1998, dated 2000).

The assay has as its system male Wister rats. Kind of assay: Social interaction test of experimental anxiety. Type of assay: in vivo. Particulars: 20 mg/kg intraperitoneal, tested 1 hour after dosing, 5 minutes observation, compared to baseline, significance at p<0.01. On the procedure:
The procedure for this assay is summarized below.
All experiments were performed on male Wister rats (Harlan laboratories, 275-300 gm). The rats were individually housed in a temperature controlled room (72°F) on a 12 hour day/night cycle. The rats were provided food and water ad libitum.
Approximately 40 mg of the test compound was weighed into a 20 mL glass vial. To this solid were added 80µL of lactic acid (85%). The mixture was sonicated for 2 minutes and then 4mL of distilled water was added in lmL increments. Sonication of this mixture was continued until all of the solid had dissolved. Following sonication, the pH of the mixture was raised by the addition of dilute aqueous sodium hydroxide until the mixture reached a pH of about 5.5.
Each rat was weighed and the test compound administered by intraperitoneal injection at 20 mg/kg of body weight. […]
Experimental anxiety was measured by a social interaction test. […] A video camera was fixed above the social interaction box and all behavioral tests were recorded. […] The amount of time that the rat which received test compound spent interacting (i.e. grooming, sniffing, crawling upon) with the other rat was recorded. […]
Social interaction data was analyzed as total interaction time in seconds and the raw scores were compared between baseline and treatment. […]

Take `O[C@H](COc1ccc2ccccc2c1)CN1CCC(O)(c2cnc3ccccc3c2)CC1` [Example 37, 1-((2S)-hydroxy-3-(naphth-2-yloxy)prop-1-yl)-4-hydroxy-4-(quinolin-3-yl)piperidine]: the social interaction time result is “significantly increase social interaction time as compared to baseline”.
